From PMC11198769, “Enhancement of transcription efficiency by TAR-Tat system increases the functional expression of human olfactory receptors” (PLOS ONE, 2024)

Tests used:
OR2W1 = target: T1, OR2W1 (Homo sapiens, UniProt Q9Y3N9); design: method as in PMID 19261596; conditions: read-out: EC50 value of n-hexanal for OR2W1 reported in a previous study; cited from earlier work
T1 construct: Lucy tag (N); FLAG (N); Rho tag (N); expressed in transfected cells; host or cells: Flp-In T-REx-293 cells stably expressing RTP1S, Gαolf and Ric8-b
T1 sequence (Q9Y3N9 1-320): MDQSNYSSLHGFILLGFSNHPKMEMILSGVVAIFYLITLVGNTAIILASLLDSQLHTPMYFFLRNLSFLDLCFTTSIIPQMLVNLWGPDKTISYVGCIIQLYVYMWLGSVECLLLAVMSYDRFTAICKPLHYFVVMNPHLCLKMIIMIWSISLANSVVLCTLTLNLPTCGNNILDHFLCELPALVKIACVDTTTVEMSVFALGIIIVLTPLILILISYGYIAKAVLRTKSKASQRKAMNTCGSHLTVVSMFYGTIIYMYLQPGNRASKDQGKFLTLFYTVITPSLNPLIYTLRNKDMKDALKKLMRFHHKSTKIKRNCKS

OR2B3 = target: T2, OR2B3 (Homo sapiens, UniProt O76000); assay: hOR assay (GloSensor cAMP luciferase), dose-response; assay type: cell-based; conditions: OR2B3, with or without the TAR-Tat system
T2 construct: Lucy tag (N); FLAG (N); Rho tag (N); expressed in transfected cells; host or cells: Flp-In T-REx-293 cells stably expressing RTP1S, Gαolf and Ric8-b
T2 sequence (O76000 1-313): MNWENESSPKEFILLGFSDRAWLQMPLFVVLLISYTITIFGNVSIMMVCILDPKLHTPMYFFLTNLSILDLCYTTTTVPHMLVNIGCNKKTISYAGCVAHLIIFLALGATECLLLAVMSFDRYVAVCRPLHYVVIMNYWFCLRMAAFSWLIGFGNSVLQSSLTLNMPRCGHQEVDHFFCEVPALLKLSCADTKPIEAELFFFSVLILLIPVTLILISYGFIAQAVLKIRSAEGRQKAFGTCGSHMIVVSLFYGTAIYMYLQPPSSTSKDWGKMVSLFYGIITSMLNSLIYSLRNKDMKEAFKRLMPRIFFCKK

OR8B3 = target: T3, OR8B3 (Homo sapiens, UniProt Q8NGG8); assay: as above; assay type: cell-based; conditions: OR8B3, with or without the TAR-Tat system
T3 construct: Lucy tag (N); FLAG (N); Rho tag (N); expressed in transfected cells; host or cells: Flp-In T-REx-293 cells stably expressing RTP1S, Gαolf and Ric8-b
T3 sequence (Q8NGG8 1-313): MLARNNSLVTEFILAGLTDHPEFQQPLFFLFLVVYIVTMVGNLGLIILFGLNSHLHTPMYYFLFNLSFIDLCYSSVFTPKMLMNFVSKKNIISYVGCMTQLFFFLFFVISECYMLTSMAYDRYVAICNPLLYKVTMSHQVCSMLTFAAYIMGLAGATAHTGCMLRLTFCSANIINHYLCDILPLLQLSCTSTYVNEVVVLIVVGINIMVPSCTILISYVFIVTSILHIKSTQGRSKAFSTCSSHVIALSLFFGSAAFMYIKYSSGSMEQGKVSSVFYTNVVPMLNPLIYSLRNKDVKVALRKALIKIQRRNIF

OR2Z1 = target: T4, OR2Z1 (Homo sapiens, UniProt Q8NG97); assay: as above; assay type: cell-based; conditions: OR2Z1, with or without the TAR-Tat system
T4 construct: Lucy tag (N); FLAG (N); Rho tag (N); expressed in transfected cells; host or cells: Flp-In T-REx-293 cells stably expressing RTP1S, Gαolf and Ric8-b
T4 sequence (Q8NG97 1-314): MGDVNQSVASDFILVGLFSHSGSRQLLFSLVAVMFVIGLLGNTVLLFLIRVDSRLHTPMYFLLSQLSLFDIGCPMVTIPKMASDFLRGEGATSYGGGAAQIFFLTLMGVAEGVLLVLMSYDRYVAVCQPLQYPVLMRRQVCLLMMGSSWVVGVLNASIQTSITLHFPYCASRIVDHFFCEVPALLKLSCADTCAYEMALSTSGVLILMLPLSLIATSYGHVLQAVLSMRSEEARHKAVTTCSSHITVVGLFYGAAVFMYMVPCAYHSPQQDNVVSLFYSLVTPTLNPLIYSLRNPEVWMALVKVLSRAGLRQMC

CCCCCC=O [n-hexanal]
EC50 (OR2W1): 7.9 µM | concentration-dependent response to n-hexanal (OR2B3): no concentration-dependent response | concentration-dependent response to n-hexanal (OR8B3): no concentration-dependent response | concentration-dependent response to n-hexanal (OR2Z1): no concentration-dependent response
